Laboratory results from patent publication US12252524B2, “GIP/GLP1 co-agonist compounds” (Eli Lilly and Company, priority 2018, dated 2025).
Numbered stars: 1 amine (or outer) side, 2 acyl side, 3 side chain; on linkers, the order of the positions; unused ones are H or OH. Square brackets hold non-standard residues; d marks the D form. Side chains are listed from the residue outwards. Peptide text beside a SMILES is read from it. * marks the point of attachment. Ala(1H-tetrazol-5-yl) = N[C@@H](Cc1nnn[nH]1)C(=O)O; C20 diacid = O=C(O)CCCCCCCCCCCCCCCCCCC(=O)*; C18 diacid = O=C(O)CCCCCCCCCCCCCCCCC(=O)*; αMePhe(2-F) = C[C@](N)(Cc1ccccc1F)C(=O)O; γGlu = O=C(O)[C@H](CCC(=O)[*:2])N[*:1]; Desaminotyrosyl = O=C(CCc1ccc(O)cc1)*; αMeY = C[C@](N)(Cc1ccc(O)cc1)C(=O)O; αMeF = C[C@](N)(Cc1ccccc1)C(=O)O; αMeL = CC(C)C[C@](C)(N)C(=O)O; Orn = NCCC[C@H](N)C(=O)O; AEEA = NCCOCCOCC(=O)O; Aib = CC(C)(N)C(=O)O

How the values were obtained:
[1] = target: T1, gastric inhibitory peptide receptor (GIPR) (Homo sapiens, UniProt P48546); test: cAMP pharmacological functional assay in presence of casein, hGIPR; format: cell-based; conditions: HEK293 cells expressing hGIPR, 0.1% Casein, geometric mean; read-out: hGIPR cAMP Rel EC50 nM (SEM, n)
T1 sequence (P48546 22-466): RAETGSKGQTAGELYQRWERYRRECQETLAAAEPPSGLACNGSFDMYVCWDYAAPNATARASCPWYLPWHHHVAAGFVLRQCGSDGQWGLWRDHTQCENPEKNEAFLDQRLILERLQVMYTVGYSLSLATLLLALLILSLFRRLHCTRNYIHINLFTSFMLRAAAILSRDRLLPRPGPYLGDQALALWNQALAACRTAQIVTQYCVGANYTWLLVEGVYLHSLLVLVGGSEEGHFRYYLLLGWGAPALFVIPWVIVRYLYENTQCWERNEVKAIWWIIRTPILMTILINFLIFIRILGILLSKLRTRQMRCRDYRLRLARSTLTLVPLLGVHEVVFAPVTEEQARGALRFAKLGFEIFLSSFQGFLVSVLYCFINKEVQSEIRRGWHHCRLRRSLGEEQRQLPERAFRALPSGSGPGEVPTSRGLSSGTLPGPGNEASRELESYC

[2] = target: human GLP-1 receptor (GLP-1R) (Homo sapiens, UniProt P43220); test: cAMP pharmacological functional assay in presence of casein, hGLP-1R; format: cell-based; conditions: HEK293 cells expressing hGLP-1R, 0.1% Casein, geometric mean; read-out: hGLP1R cAMP Rel EC50 nM (SEM, n)
human GLP-1 receptor (GLP-1R), sequence (P43220 24-463): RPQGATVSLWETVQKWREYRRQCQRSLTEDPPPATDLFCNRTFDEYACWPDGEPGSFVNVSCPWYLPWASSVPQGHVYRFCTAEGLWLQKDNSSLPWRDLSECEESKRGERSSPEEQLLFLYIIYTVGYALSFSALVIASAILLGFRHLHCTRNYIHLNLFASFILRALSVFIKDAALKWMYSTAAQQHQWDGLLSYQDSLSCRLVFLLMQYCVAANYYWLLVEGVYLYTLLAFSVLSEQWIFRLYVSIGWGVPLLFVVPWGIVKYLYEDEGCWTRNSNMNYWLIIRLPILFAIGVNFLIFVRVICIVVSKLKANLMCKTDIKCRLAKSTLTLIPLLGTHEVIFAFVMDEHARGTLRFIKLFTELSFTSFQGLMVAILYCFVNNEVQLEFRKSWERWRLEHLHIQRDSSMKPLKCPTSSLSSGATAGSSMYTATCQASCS

| Structure (SMILES) | EC50 [1] [nM] | EC50 [2] [nM] |
| --- | --- | --- |
| CC[C@H](C)[C@H](NC(=O)[C@H](CC(C)C)NC(=O)[C@](C)(Cc1ccc(O)cc1)NC(=O)[C@@H](CCC(=O)O)NC(=O)[C@@H](NC(=O)[C@H](Cc1ccccc1)NC(=O)[C@@H](NC(=O)C(C)(C)NC(=O)[C@H](CCC(N)=O)NC(=O)[C@H](C)NC(=O)[C@H](CCCCNC(=O)COCCOCCNC(=O)COCCOCCNC(=O)CC[C@H](NC(=O)CCCCCCCCCCCCCCCCC(=O)O)C(=O)O)NC(=O)[C@H](CCCN)NC(=O)[C@H](CC(=O)O)NC(=O)[C@H](CC(C)C)NC(=O)[C@](C)(CC(C)C)NC(=O)[C@@H](NC(=O)[C@H](CO)NC(=O)[C@H](C)NC(=O)[C@H](CC(=O)O)NC(=O)[C@H](CO)NC(=O)[C@@H](NC(=O)[C@](C)(Cc1ccccc1F)NC(=O)[C@@H](NC(=O)CNC(=O)[C@H](CCC(=O)O)NC(=O)C(C)(C)NC(=O)[C@@H](N)Cc1ccc(O)cc1)[C@@H](C)O)[C@@H](C)O)[C@@H](C)CC)[C@@H](C)O)[C@@H](C)CC)C(=O)N[C@@H](CCC(=O)O)C(=O)NCC(=O)NCC(=O)N1CCC[C@H]1C(=O)N[C@@H](CO)C(=O)N[C@@H](CO)C(=O)NCC(=O)N[C@@H](C)C(=O)N1CCC[C@H]1C(=O)N1CCC[C@H]1C(=O)N1CCC[C@H]1C(=O)N[C@@H](CO)C(N)=O [Example 245] (H-Y[Aib]EGT[αMePhe(2-F)]TSDASI[αMeL]LD[Orn]K([AEEA-AEEA-γGlu-C18 diacid])AQ[Aib]TFI[dE][αMeY]LIEGGPSSGAPPPS-NH2) | 0.0552 | 0.0222 |
| CC[C@H](C)[C@H](NC(=O)[C@H](CC(C)C)NC(=O)[C@H](Cc1ccc(O)cc1)NC(=O)[C@H](CCC(=O)O)NC(=O)[C@@H](NC(=O)[C@H](Cc1ccccc1)NC(=O)[C@@H](NC(=O)C(C)(C)NC(=O)[C@H](CCC(N)=O)NC(=O)[C@H](C)NC(=O)[C@H](CCCCNC(=O)COCCOCCNC(=O)COCCOCCNC(=O)CC[C@H](NC(=O)CCCCCCCCCCCCCCCCCCC(=O)O)C(=O)O)NC(=O)[C@H](CCCCN)NC(=O)[C@H](CC(=O)O)NC(=O)[C@H](CC(C)C)NC(=O)[C@](C)(CC(C)C)NC(=O)[C@@H](NC(=O)[C@H](CO)NC(=O)[C@H](Cc1ccc(O)cc1)NC(=O)[C@H](CC(=O)O)NC(=O)[C@H](CO)NC(=O)[C@@H](NC(=O)[C@](C)(Cc1ccccc1)NC(=O)[C@@H](NC(=O)CNC(=O)[C@H](CCC(=O)O)NC(=O)C(C)(C)NC(=O)[C@@H](N)Cc1ccc(O)cc1)[C@@H](C)O)[C@@H](C)O)[C@@H](C)CC)[C@@H](C)CC)[C@@H](C)CC)C(=O)N[C@@H](CCC(=O)O)C(=O)NCC(=O)NCC(=O)N1CCC[C@H]1C(=O)N[C@@H](CO)C(=O)N[C@@H](CO)C(=O)NCC(=O)N[C@@H](C)C(=O)N1CCC[C@H]1C(=O)N1CCC[C@H]1C(=O)N1CCC[C@H]1C(=O)N[C@@H](CO)C(N)=O [Example 141] (H-Y[Aib]EGT[αMeF]TSDYSI[αMeL]LDKK([AEEA-AEEA-γGlu-C20 diacid])AQ[Aib]IFIEYLIEGGPSSGAPPPS-NH2; N-terminus assumed) | 0.2 | 0.0975 |
| CC[C@H](C)[C@H](NC(=O)[C@H](CC(C)C)NC(=O)[C@H](Cc1ccc(O)cc1)NC(=O)[C@H](CCC(=O)O)NC(=O)[C@@H](NC(=O)[C@H](Cc1ccccc1)NC(=O)[C@H](C)NC(=O)C(C)(C)NC(=O)[C@H](CCC(N)=O)NC(=O)[C@H](C)NC(=O)[C@H](CCCCNC(=O)COCCOCCNC(=O)[C@H]1CC[C@H](CNC(=O)CC[C@H](NC(=O)CCCCCCCCCCCCCCCCCCC(=O)O)C(=O)O)CC1)NC(=O)[C@H](CCCCN)NC(=O)[C@H](CC(=O)O)NC(=O)[C@H](CC(C)C)NC(=O)[C@H](CC(C)C)NC(=O)[C@@H](NC(=O)[C@H](CO)NC(=O)[C@H](Cc1ccc(O)cc1)NC(=O)[C@H](CC(=O)O)NC(=O)[C@H](CO)NC(=O)[C@@H](NC(=O)[C@H](Cc1ccccc1)NC(=O)[C@@H](NC(=O)CNC(=O)[C@H](CCC(=O)O)NC(=O)C(C)(C)NC(=O)[C@@H](N)Cc1ccc(O)cc1)[C@@H](C)O)[C@@H](C)O)[C@@H](C)CC)[C@@H](C)CC)C(=O)N[C@@H](CCC(=O)O)C(=O)NCC(=O)NCC(=O)N1CCC[C@H]1C(=O)N[C@@H](CO)C(=O)N[C@@H](CO)C(=O)NCC(=O)N[C@@H](C)C(=O)N1CCC[C@H]1C(=O)N1CCC[C@H]1C(=O)N1CCC[C@H]1C(=O)N[C@@H](CO)C(N)=O [Example 111] | 0.141 | 0.308 |
| CC[C@H](C)[C@H](NC(=O)[C@H](CC(C)C)NC(=O)[C@H](Cc1ccc(O)cc1)NC(=O)[C@H](CCC(=O)O)NC(=O)[C@@H](NC(=O)[C@H](Cc1ccccc1)NC(=O)[C@H](CCC(=O)O)NC(=O)C(C)(C)NC(=O)[C@H](CCC(N)=O)NC(=O)[C@H](C)NC(=O)[C@H](CCCCNC(=O)COCCOCCNC(=O)COCCOCCNC(=O)CC[C@H](NC(=O)CCCCCCCCCCCCCCCCCCC(=O)O)C(=O)O)NC(=O)[C@H](CCC(=O)O)NC(=O)[C@H](CC(=O)O)NC(=O)[C@H](CC(C)C)NC(=O)[C@](C)(CC(C)C)NC(=O)[C@@H](NC(=O)[C@H](CO)NC(=O)[C@H](Cc1nn[nH]n1)NC(=O)[C@H](CC(=O)O)NC(=O)[C@H](CO)NC(=O)[C@@H](NC(=O)[C@](C)(Cc1ccccc1F)NC(=O)[C@@H](NC(=O)CNC(=O)[C@H](CCC(=O)O)NC(=O)C(C)(C)NC(=O)[C@@H](N)Cc1ccc(O)cc1)[C@@H](C)O)[C@@H](C)O)[C@@H](C)CC)[C@@H](C)CC)C(=O)N[C@@H](CCC(=O)O)C(=O)NCC(=O)NCC(=O)N1CCC[C@H]1C(=O)N[C@@H](CO)C(=O)N[C@@H](CO)C(=O)NCC(=O)N[C@@H](C)C(=O)N1CCC[C@H]1C(=O)N1CCC[C@H]1C(=O)N1CCC[C@H]1C(=O)N[C@@H](CO)C(N)=O [Example 155] (H-Y[Aib]EGT[αMePhe(2-F)]TSD[Ala(1H-tetrazol-5-yl)]SI[αMeL]LDEK([AEEA-AEEA-γGlu-C20 diacid])AQ[Aib]EFIEYLIEGGPSSGAPPPS-NH2; N-terminus assumed) | 0.266 | 0.495 |
| CC[C@H](C)[C@H](NC(=O)[C@H](CC(C)C)NC(=O)[C@H](Cc1ccc(O)cc1)NC(=O)[C@H](CCC(=O)O)NC(=O)[C@@H](NC(=O)[C@H](Cc1ccccc1)NC(=O)[C@H](C)NC(=O)[C@H](CCC(N)=O)NC(=O)[C@H](CCC(N)=O)NC(=O)[C@H](C)NC(=O)[C@H](CCCCNC(=O)COCCOCCNC(=O)COCCOCCNC(=O)CC[C@H](NC(=O)CCCCCCCCCCCCCCCCCCC(=O)O)C(=O)O)NC(=O)[C@H](CCC(=O)O)NC(=O)[C@H](CC(=O)O)NC(=O)[C@H](CC(C)C)NC(=O)[C@H](CC(C)C)NC(=O)[C@@H](NC(=O)[C@H](CO)NC(=O)[C@H](Cc1ccc(O)cc1)NC(=O)[C@H](CC(=O)O)NC(=O)[C@H](CO)NC(=O)[C@@H](NC(=O)[C@H](Cc1ccccc1)NC(=O)[C@@H](NC(=O)CNC(=O)[C@H](CCC(=O)O)NC(=O)C(C)(C)NC(=O)CCc1ccc(O)cc1)[C@@H](C)O)[C@@H](C)O)[C@@H](C)CC)[C@@H](C)CC)C(=O)N[C@@H](CCC(=O)O)C(=O)NCC(=O)NCC(=O)N1CCC[C@H]1C(=O)N[C@@H](CO)C(=O)N[C@@H](CO)C(=O)NCC(=O)N[C@@H](C)C(=O)N1CCC[C@H]1C(=O)N1CCC[C@H]1C(=O)N1CCC[C@H]1C(=O)N[C@@H](CO)C(N)=O [Example 199] (Desaminotyrosyl-[Aib]EGTFTSDYSILLDEK([AEEA-AEEA-γGlu-C20 diacid])AQQAFIEYLIEGGPSSGAPPPS-NH2) | > 30 | 0.0422 |
| CC[C@H](C)[C@H](NC(=O)[C@H](CC(C)C)NC(=O)[C@H](Cc1ccc(O)cc1)NC(=O)[C@@H](CCC(=O)O)NC(=O)[C@@H](NC(=O)[C@H](Cc1ccccc1)NC(=O)[C@@H](NC(=O)C(C)(C)NC(=O)[C@H](CCC(N)=O)NC(=O)[C@H](C)NC(=O)[C@H](CCCCNC(=O)COCCOCCNC(=O)COCCOCCNC(=O)[C@@H](N)CCCCNC(=O)CCCCCCCCCCCCCCCCCCC(=O)O)NC(=O)[C@H](CCC(=O)O)NC(=O)[C@H](CC(=O)O)NC(=O)[C@H](CC(C)C)NC(=O)C(C)(CC(C)C)NC(=O)[C@@H](NC(=O)[C@H](CO)NC(=O)[C@H](Cc1c[nH]cn1)NC(=O)[C@H](CC(=O)O)NC(=O)[C@H](CO)NC(=O)[C@@H](NC(=O)C(C)(Cc1ccccc1F)NC(=O)[C@@H](NC(=O)CNC(=O)[C@H](CCC(=O)O)NC(=O)C(C)(C)NC(=O)[C@@H](N)Cc1ccc(O)cc1)[C@@H](C)O)[C@@H](C)O)[C@@H](C)CC)[C@@H](C)O)[C@@H](C)CC)C(=O)N[C@@H](CCC(=O)O)C(=O)NCC(=O)NCC(=O)N1CCC[C@H]1C(=O)N[C@@H](CO)C(=O)N[C@@H](CO)C(=O)NCC(=O)N[C@@H](C)C(=O)N1CCC[C@H]1C(=O)N1CCC[C@H]1C(=O)N1CCC[C@H]1C(=O)N[C@@H](CO)C(N)=O (stereo partly drawn) [Example 175] | 0.0881 | 1.11 |
